From US8232406B2, “c-MET protein kinase inhibitors” (Vertex Pharmaceuticals Incorporated, priority 2006, dated 2012)

What follows are compounds tested against c-MET (Homo sapiens, UniProt P08581) (assay: Ki determination for the inhibition of c-MET (standard radiometric 33P-ATP kinase assay, polyE4Y substrate)). Details: 1.0 nM c-Met, 35 μM ATP, 0.5 mg/mL polyE4Y, 20 min; competitive tight-binding fit.
Type: biochemical
How it was run: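 Ki obtained by fitting data to competitive tight-binding inhibition kinetics. c-Met at 1.0 nM phosphorylated polyE4Y (0.5 mg/mL) with 35 μM 33P-ATP for 20 min in pH 7.5 HEPES buffer with MgCl2, NaCl, BSA and DTT. Incorporated label measured by scintillation after TCA precipitation on filters.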

c-MET, sequence (P08581 25-1390): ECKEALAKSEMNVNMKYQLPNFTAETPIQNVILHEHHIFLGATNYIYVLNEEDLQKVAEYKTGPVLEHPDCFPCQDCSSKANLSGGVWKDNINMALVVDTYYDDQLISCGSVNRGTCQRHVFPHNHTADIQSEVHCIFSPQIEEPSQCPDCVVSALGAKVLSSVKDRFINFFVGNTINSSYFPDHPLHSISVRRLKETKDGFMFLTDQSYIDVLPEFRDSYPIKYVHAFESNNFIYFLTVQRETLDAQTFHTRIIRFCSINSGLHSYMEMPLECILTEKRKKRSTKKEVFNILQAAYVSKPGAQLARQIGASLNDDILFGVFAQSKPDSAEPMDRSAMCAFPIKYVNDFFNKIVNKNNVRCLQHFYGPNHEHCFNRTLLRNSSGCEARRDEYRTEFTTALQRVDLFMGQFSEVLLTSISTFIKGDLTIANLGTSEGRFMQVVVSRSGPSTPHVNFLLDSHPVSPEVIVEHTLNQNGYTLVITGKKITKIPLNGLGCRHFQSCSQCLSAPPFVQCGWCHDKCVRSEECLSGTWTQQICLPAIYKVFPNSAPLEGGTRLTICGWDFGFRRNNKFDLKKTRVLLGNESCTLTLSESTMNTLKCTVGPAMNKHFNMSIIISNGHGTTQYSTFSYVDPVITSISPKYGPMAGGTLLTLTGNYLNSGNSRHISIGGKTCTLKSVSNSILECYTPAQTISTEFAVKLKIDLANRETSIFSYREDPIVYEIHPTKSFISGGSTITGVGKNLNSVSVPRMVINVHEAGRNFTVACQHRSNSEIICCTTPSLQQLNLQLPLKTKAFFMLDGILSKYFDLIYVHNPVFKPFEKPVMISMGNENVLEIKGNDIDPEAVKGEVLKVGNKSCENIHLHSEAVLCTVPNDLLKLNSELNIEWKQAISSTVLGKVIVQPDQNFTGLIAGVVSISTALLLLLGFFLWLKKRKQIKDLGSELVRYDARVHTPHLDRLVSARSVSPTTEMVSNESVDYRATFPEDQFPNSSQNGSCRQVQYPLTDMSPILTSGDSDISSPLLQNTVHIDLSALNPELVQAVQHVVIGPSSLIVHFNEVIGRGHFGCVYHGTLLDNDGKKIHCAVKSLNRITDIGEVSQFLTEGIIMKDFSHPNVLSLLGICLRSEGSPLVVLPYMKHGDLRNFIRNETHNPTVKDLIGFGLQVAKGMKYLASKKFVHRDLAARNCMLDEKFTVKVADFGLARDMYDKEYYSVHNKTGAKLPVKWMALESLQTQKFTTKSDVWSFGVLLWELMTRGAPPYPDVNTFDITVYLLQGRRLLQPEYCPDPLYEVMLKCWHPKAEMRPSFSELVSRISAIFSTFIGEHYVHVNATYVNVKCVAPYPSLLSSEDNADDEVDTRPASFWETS

| Compound | Ki [nM] |
| --- | --- |
| CC(C)CC(=O)N1CC=C(c2cnc(N)c(-c3nnnn3-c3cccc(F)c3F)c2)CC1 [I-A-513] | ≤ 100 |
| Nc1ncc(C2=CCN(C(=O)[C@@H]3CCC(=O)N3)CC2)cc1-c1nnnn1-c1cccc(F)c1F [I-A-642] | ≤ 100 |
| Nc1ncc(-c2cccc(NC(=O)CN3CCCC3)c2)cc1-c1nnnn1-c1cccc(F)c1F [I-A-259] | ≤ 100 |
| Nc1ncc(-c2ccc3c(c2)NC(=O)C3)cc1-c1nnnn1-c1cccc(F)c1F [I-A-190] | ≤ 100 |
| CN(C)Cc1ccc(-c2cnc(N)c(-c3nnnn3-c3cccc(Cl)c3F)c2)cc1 [I-A-360] | ≤ 100 |
| CN1CCN(C(=O)Nc2cccc(-c3cnc(N)c(-c4nnnn4-c4cccc(F)c4F)c3)c2)CC1 [I-A-270] | 100 to 1000 |
| Nc1cccc(-c2cnc(N)c(-c3nncn3-c3cccc(Cl)c3Cl)c2)c1 [I-A-68] | 100 to 1000 |
| CC(=O)Nc1ccc(-c2cnc(N)c(-c3nnnn3-c3cccc(F)c3F)c2)s1 [I-A-263] | ≤ 100 |
| Nc1ncc(-c2ccc(NC(=O)c3ccncc3)cc2)cc1-c1nnnn1-c1cccc(F)c1F [I-A-280] | ≤ 100 |
| Nc1ncc(-c2cn(C3CCNCC3)nn2)cc1-c1nnnn1-c1cccc(F)c1F [I-A-483, 3-(1-(2,3-Difluorophenyl)-1H-tetrazol-5-yl)-5-(1-(piperidin-4-yl)-1H-1,2,3-triazol-4-yl)pyridin-2-amine] | ≤ 100 |
| Nc1ncc(-c2ccc(CN3CCCC3)cc2)cc1-c1nnnn1-c1cc(Cl)cc(Cl)c1 [I-A-597] | 100 to 1000 |
| COc1ccc(-c2cnc(N)c(-c3nnnn3-c3cccc(F)c3F)c2)cc1OC [I-A-309] | ≤ 100 |
| Nc1ncc(-c2cnn([C@@H]3CCCNC3)c2)nc1-c1nnnn1-c1cccc(F)c1F [I-A-659] | ≤ 100 |
| Nc1ncc(-c2ccc(C3CCNCC3)cc2)cc1-c1nnnn1-c1cccc(F)c1F [I-A-400] | ≤ 100 |
| Nc1ncc(-c2ccc(N3CC(=O)NC3=O)cc2)cc1-c1nnnn1-c1cccc(F)c1F [I-A-256] | ≤ 100 |
| Nc1ncc(-c2cnn([C@H]3CCNC3)c2)cc1-c1nnnn1-c1cccc(Cl)c1Cl [I-A-413] | ≤ 100 |
| Nc1ncc(-c2cccc(CO)c2)cc1-c1nnnn1-c1cccc(F)c1F [I-A-231] | ≤ 100 |
| Nc1ncc(-c2cccc(NC(=O)N3CCCC3)c2)cc1-c1nnnn1-c1cccc(F)c1F [I-A-269] | 100 to 1000 |
| CN1CCN(c2ccc(-c3cnc(N)c(-c4nnnn4-c4cccc(F)c4F)n3)cc2)CC1 [I-A-46] | ≤ 100 |
| Nc1ccc(-c2cnc(N)c(-c3nnnn3-c3cccc(F)c3F)c2)cc1[N+](=O)[O-] [I-A-312] | ≤ 100 |

| Compound | Ki [nM] |
| --- | --- |
| CN(C)CC(=O)N1CCC(n2cc(-c3cnc(N)c(-c4nnnn4-c4cccc(Cl)c4F)c3)cn2)CC1 [I-A-444] | ≤ 100 |
| COc1ccc(F)cc1-n1nnnc1-c1cc(-c2ccc(CN(C)C)cc2)cnc1N [I-A-606] | 100 to 1000 |
| CC(C)C(=O)N1CCC(n2cc(-c3cnc(N)c(-c4nnnn4-c4cccc(Cl)c4F)c3)cn2)CC1 [I-A-441] | ≤ 100 |
| Nc1cccc(-c2cnc(N)c(-c3nncn3-c3cccc(F)c3F)n2)c1 [I-A-12] | ≤ 100 |
| Nc1ncc(-c2cccnc2)cc1-c1nnnn1-c1c(F)cccc1Cl [I-A-617] | 100 to 1000 |
| Nc1nc2cc(F)c(-c3cnc(N)c(-c4nncn4-c4cccc(F)c4F)n3)cc2[nH]1 [I-A-56] | ≤ 100 |
| COc1c(F)cccc1-n1nnnc1-c1cc(-c2cccnc2)cnc1N [I-A-561] | 100 to 1000 |
| CCCN1CCc2cc(-c3cnc(N)c(-c4nnnn4-c4cccc(F)c4F)c3)sc2CC1 [I-A-519] | ≤ 100 |
| Nc1ncc(-c2cc3c(s2)CCNCC3)nc1-c1nnnn1-c1cccc(F)c1F [I-A-653] | ≤ 100 |
| Nc1ncc(-c2ccn(C3CCNCC3)c2)cc1-c1nnnn1-c1cccc(Cl)c1F [I-A-652] | ≤ 100 |
| COc1cc(-c2cnc(N)c(-c3nnnn3-c3cccc(F)c3F)c2)cc(OC)c1OC [I-A-296] | 100 to 1000 |
| CC(c1ccc(-c2cnc(N)c(-c3nnnn3-c3cccc(F)c3F)c2)cc1)N1CCCC1 (stereo not drawn) [I-A-180] | ≤ 100 |
| Nc1ncc(-c2cnn(C3CCNCC3)c2)cc1-c1nnnn1-c1c(Cl)cccc1Cl [I-A-631] | ≤ 100 |
| CCC(CC)C(=O)Nc1ccc(-c2cnc(N)c(-c3nnnn3-c3cccc(F)c3F)c2)cc1 [I-A-197] | ≤ 100 |
| COC(=O)Nc1ccc(-c2cnc(N)c(-c3nnnn3-c3cccc(F)c3F)c2)cc1 [I-A-352] | 100 to 1000 |
| Nc1ncc(-c2cnn(C3CCNCC3)c2)cc1-c1nnnn1-c1cc(Cl)ccc1F [I-A-635] | ≤ 100 |
| N#Cc1ccc(-c2cnc(N)c(-c3nnnn3-c3cccc(Cl)c3Cl)c2)cc1 [I-A-89] | 100 to 1000 |
| Cn1cncc1-c1cnc(N)c(-c2nnnn2-c2cccc(F)c2F)c1 [I-A-496] | 100 to 1000 |
| Nc1ncc(-c2cnn(C3CCN(C(=O)N4CCCC4)CC3)c2)cc1-c1nnnn1-c1cccc(Cl)c1F [I-A-443] | ≤ 100 |
| Nc1ncc(-c2cccc(N3CCNCC3)c2)cc1-c1nccn1-c1cccc(Cl)c1Cl [I-A-401] | ≤ 100 |

| Compound | Ki [nM] |
| --- | --- |
| Nc1ncc(-c2cccc(C(=O)N3CCOCC3)c2)cc1-c1nnnn1-c1cccc(F)c1F [I-A-320] | 100 to 1000 |
| CCNC(=O)Nc1ccc(-c2cnc(N)c(-c3nnnn3-c3cccc(F)c3F)c2)cc1 [I-A-281] | ≤ 100 |
| CN1CCN(Cc2ccc(-c3cnc(N)c(-c4nc5cnccc5n4-c4cccc(F)c4F)c3)cc2)CC1 [I-D-5] | ≤ 100 |
| Nc1ncc(-c2ccc(CN3CCC(N4CCCCC4)CC3)cc2)cc1-c1nnnn1-c1cccc(Cl)c1Cl [I-A-98] | ≤ 100 |
| COC(=O)C(C)NC(=O)Nc1cccc(-c2cnc(N)c(-c3nnnn3-c3cccc(F)c3F)c2)c1 (stereo not drawn) [I-A-327] | 100 to 1000 |
| Nc1ncc(-c2cc(Cl)c(N)c(Cl)c2)cc1-c1nnnn1-c1cccc(F)c1F [I-A-287] | ≤ 100 |
| Nc1ncc(-c2ccncc2)nc1-c1nnc(O)n1-c1cccc(F)c1F [I-A-15] | 100 to 1000 |
| Nc1ncc(-c2ccc(CN3CCCC3)c(F)c2)cc1-c1nnnn1-c1cccc(F)c1F [I-A-213] | ≤ 100 |
| Nc1ncc(-c2ccc(CN3CCCC3)cc2)cc1-c1nnnn1-c1c(Cl)cccc1Cl [I-A-622] | ≤ 100 |
| Nc1ncc(-c2cccc(NC(=O)C3CC3)c2)cc1-c1nnnn1-c1cccc(F)c1F [I-A-261] | ≤ 100 |
| Nc1ncc(-c2cnn(C3CCNCC3)c2)cc1-c1nnnn1-c1cccc(F)c1F [I-A-370] | ≤ 100 |
| Cn1cc(-c2cnc(N)c(-c3nnnn3-c3cccc(F)c3F)c2)cn1 [I-A-249] | ≤ 100 |
| CC(=O)Nc1cccc(-c2cnc(N)c(-c3nnnn3-c3cc(Cl)ccc3F)c2)c1 [I-A-568] | 100 to 1000 |
| CCOC(=O)N1CCc2cc(-c3cnc(N)c(-c4nnnn4-c4cccc(F)c4F)c3)sc2CC1 [I-A-480] | ≤ 100 |
| N#CCN1CCC(n2cc(-c3cnc(N)c(-c4nnnn4-c4cccc(F)c4F)c3)cn2)CC1 [I-A-462] | ≤ 100 |
| COC(=O)[C@H](CC(C)C)NC(=O)Nc1ccc(-c2cnc(N)c(-c3nnnn3-c3cccc(F)c3F)c2)cc1 [I-A-330] | 100 to 1000 |
| Nc1ncc(-c2cnn(C3CCN(CC4CCCC4)CC3)c2)cc1-c1nnnn1-c1cccc(Cl)c1F [I-A-474] | ≤ 100 |
| COCCN1CCC(n2cc(-c3cnc(N)c(-c4nncn4-c4cccc(F)c4F)c3)cn2)CC1 [I-A-476] | ≤ 100 |
| COc1c(F)cccc1-n1nnnc1-c1cc(-c2cnn(C3CCNCC3)c2)cnc1N [I-A-638] | 100 to 1000 |
| Nc1ncc(-c2cnn(C3CCN(CC(F)F)CC3)c2)cc1-c1nnnn1-c1cccc(F)c1F [I-A-453] | ≤ 100 |
